Data from patent US4684637A, “Method of decreasing rate of heme metabolism” (The Rockefeller University, priority 1985, dated 1987).
Where “and” joins values, the source holds several entries; their conditions need not be identical. Equal values may be shown once. Blank lines part the entries; values can stand above or below the molecule they belong to.

How the values were obtained:
Format in all cases: in vivo, rat
[1] = tested on: heme oxygenase; assay: hepatic heme oxygenase activity in neonatal rats treated with Sn-protoporphyrin
Experimental: (§1) To determine the efficacy of Sn-protoporphyrin for controlling the rate of heme metabolism, neonatal rats were injected subcutaneously at birth, and at 12, 24, 48 and 72 hours postnatally with 0.1 ml solutions of Sn-protoporphyrin. To prepare the solutions for parenteral injection, the material was taken up in a small volume of 0.2N sodium hydroxide, adjusted to pH 7.4 with one normal hydrochloric acid and made up to final volume with 0.9% sodium chloride. The compositions as prepared and used contained sufficient Sn-protoporphyrin to provide about 100 μmol/Kg body weight in each 0.1 ml injection. Control neonates received an equivalent volume of saline at each time point. Groups of neonates (6-30 animals per group) were sacrificed at selected time intervals.
(§2) The treated animals and the controls were assayed for heme oxygenase activity and bilirubin concentration. Since heme oxygenase is an essential component in the catabolism of heme, an increase in heme oxygenase activity is indicative of an increase in the rate of heme catabolism. Heme oxygenase was assyed as described by Maines and Kappas in J. Biol. Chem., 253, 2321-2326 (1978). Total bilirubin in serum was estimated by the method of Roth, Clin. Chem. Acta., 17, 487-492 (1967).

[2] = tested on: serum bilirubin; assay: total serum bilirubin in neonatal rats treated with Sn-protoporphyrin; details: about 100 μmol/Kg s.c. per injection
Experimental: as §1, §2

[3] = tested on: heme oxygenase; assay: heme oxygenase activity (bilirubin production) in liver and kidney microsomes of adult rats treated with Sn-protoporphyrin; details: 50 μmol/Kg s.c.
Experimental: Studies were carried out with adult rats treated with Sn-protoporphyrin to determine the effect on heme oxygenase activity and bilirubin production. Three rats weighing about 230 grams each were injected subcutaneously with 50 μmol/Kg of Sn-protoporphyrin in isotonic saline at pH 8. Three controls were similiary treated with isotonic saline. The rats were sacrificed sixteen hours after treatment. The microsomal protein of the separate livers and of the three combined kidneys was estimated and heme oxygenase activity determined according to the method of Maines and Kappas. This procedure measures the heme oxygenase activity by determining the amount of bilirubin produced. The concentration unit for bilirubin is nanamoles bilirubin formed per milligram protein per hour.

[4] = tested on: heme oxygenase; assay: heme oxygenase activity in liver, kidney and spleen of neonatal rats treated with Cr-protoporphyrin
Experimental: as §2
(§3) Similar studies were conducted with neonatal rats treated subcutaneously with 2 and 10 micromoles per kilogram of Cr-protoporphyrin soon after birth. Various organs were analyzed for heme oxygenase activity and bilirubin concentration. The results were compared with controls each of which were treated subcutaneously with 0.1 ml of saline.
The results for heme oxygenase activity in liver, kidney and spleen in nanamoles heme oxygenase per milligram microsomal protein per hour are shown below.

[5] = tested on: serum bilirubin; assay: serum bilirubin in neonatal rats treated with Cr-protoporphyrin
Experimental: as §2, §3

[6] = neonatal rats, about 100 μmol/Kg s.c. per injection

- activity compared with Cr-protoporphyrin ([1]; decreasing rate of heme metabolism): more active
Structure (SMILES): C=Cc1c2[n-]c(c1C)/C=c1\[n-]/c(c(C)c1C=C)=C\c1[n-]c(c(CCC(=O)O)c1C)C=c1[n-]/c(c(C)c1CCC(=O)O)=C\2.[Sn+4] [Sn-protoporphyrin, tin protoporphyrin IX]
- effect on normal postnatal increase in hepatic heme oxygenase activity ([1]; neonatal rats, about 100 μmol/Kg s.c. at birth and 12, 24, 48, 72 hours, six week study): completely prevented the normal marked increase in hepatic heme oxygenase activity after birth
- day at which hepatic heme oxygenase activity attained normal control levels [1, 6]: ~42 days
- time hepatic heme oxygenase activity remained well below control levels [1, 6]: about three
- hepatic heme oxygenase activity relative to controls ([1]; neonatal rats, about 100 μmol/Kg s.c. per injection, 1 day): less than half the levels of the controls
- day until which low bilirubin concentration continued [2]: fourth
- effect on serum bilirubin levels ([2]; 42 day study): immediate and significant lowering of serum bilirubin levels
- effect on bilirubin production and heme oxygenase activity [3]: extremely effective
- heme oxygenase activity (bilirubin produced), LIVER ([3]; sacrificed sixteen hours after treatment, separate livers (Experiment 1-3 = individual rats)): 0.95 nanamoles bilirubin formed per and 1.53 nanamoles bilirubin formed per
- heme oxygenase activity (bilirubin produced), KIDNEY (COMBINED) ([3]; sacrificed sixteen hours after treatment, three combined kidneys): 0.055 nanamoles bilirubin formed per

Structure (SMILES): C=CC1=C(C)c2cc3[n-]c(cc4[n-]c(cc5nc(cc1n2)C(C)=C5C=C)c(C)c4CCC(=O)[O-])c(CCC(=O)[O-])c3C.[Cr+3].[H+] [Cr-protoporphyrin]
- effect on heme oxygenase ([4]; 2 and 10 μmol/Kg s.c., liver, kidney, spleen): immediate decrease in heme oxygenase
- heme oxygenase activity ([4]; kidney, 2 μmol/Kg s.c. soon after birth, day 2): 0.36 nanamoles heme oxygenase per m
- heme oxygenase activity ([4]; kidney, 2 μmol/Kg s.c. soon after birth, day 3): 0.72 nanamoles heme oxygenase per m
- heme oxygenase activity ([4]; kidney, 2 μmol/Kg s.c. soon after birth, day 5): 0.94 nanamoles heme oxygenase per m
- heme oxygenase activity ([4]; kidney, 2 μmol/Kg s.c. soon after birth, day 7): 1.17 nanamoles heme oxygenase per m
- heme oxygenase activity ([4]; kidney, 2 μmol/Kg s.c. soon after birth, day 10): 1.67 nanamoles heme oxygenase per m
- heme oxygenase activity ([4]; kidney, 2 μmol/Kg s.c. soon after birth, day 14): 0.74 nanamoles heme oxygenase per m
- heme oxygenase activity ([4]; kidney, 2 μmol/Kg s.c. soon after birth, day 21): 0.61 nanamoles heme oxygenase per m
- heme oxygenase activity ([4]; kidney, 2 μmol/Kg s.c. soon after birth, day 35): 0.58 nanamoles heme oxygenase per m
- heme oxygenase activity ([4]; kidney, 10 μmol/Kg s.c. soon after birth, day 2): 0 nanamoles heme oxygenase per m
- heme oxygenase activity ([4]; kidney, 10 μmol/Kg s.c. soon after birth, day 3): 0.42 nanamoles heme oxygenase per m
- heme oxygenase activity ([4]; kidney, 10 μmol/Kg s.c. soon after birth, day 5): 0.59 nanamoles heme oxygenase per m
- heme oxygenase activity ([4]; kidney, 10 μmol/Kg s.c. soon after birth, day 7): 0.48 nanamoles heme oxygenase per m
- heme oxygenase activity ([4]; kidney, 10 μmol/Kg s.c. soon after birth, day 10): 0.34 nanamoles heme oxygenase per m
- heme oxygenase activity ([4]; kidney, 10 μmol/Kg s.c. soon after birth, day 14): 0.41 nanamoles heme oxygenase per m
- heme oxygenase activity ([4]; kidney, 10 μmol/Kg s.c. soon after birth, day 21): 0.16 nanamoles heme oxygenase per m
- heme oxygenase activity ([4]; kidney, 10 μmol/Kg s.c. soon after birth, day 35): 0.45 nanamoles heme oxygenase per m
- heme oxygenase activity ([4]; liver, 2 μmol/Kg s.c. soon after birth, day 2): 5.81 nanamoles heme oxygenase per m
- heme oxygenase activity ([4]; liver, 2 μmol/Kg s.c. soon after birth, day 3): 5.60 nanamoles heme oxygenase per m
- heme oxygenase activity ([4]; liver, 2 μmol/Kg s.c. soon after birth, day 5): 5.36 nanamoles heme oxygenase per m
- heme oxygenase activity ([4]; liver, 2 μmol/Kg s.c. soon after birth, day 7): 4.42 nanamoles heme oxygenase per m
- heme oxygenase activity ([4]; liver, 2 μmol/Kg s.c. soon after birth, day 10): 3.62 nanamoles heme oxygenase per m
- heme oxygenase activity ([4]; liver, 2 μmol/Kg s.c. soon after birth, day 14): 2.24 nanamoles heme oxygenase per m
- heme oxygenase activity ([4]; liver, 2 μmol/Kg s.c. soon after birth, day 21): 1.94 nanamoles heme oxygenase per m
- heme oxygenase activity ([4]; liver, 2 μmol/Kg s.c. soon after birth, day 35): 2.38 nanamoles heme oxygenase per m
- heme oxygenase activity ([4]; liver, 10 μmol/Kg s.c. soon after birth, day 2): 1.67 nanamoles heme oxygenase per m
- heme oxygenase activity ([4]; liver, 10 μmol/Kg s.c. soon after birth, day 3): 1.43 nanamoles heme oxygenase per m
- heme oxygenase activity ([4]; liver, 10 μmol/Kg s.c. soon after birth, day 5): 1.22 nanamoles heme oxygenase per m
- heme oxygenase activity ([4]; liver, 10 μmol/Kg s.c. soon after birth, day 7): 0.85 nanamoles heme oxygenase per m
- heme oxygenase activity ([4]; liver, 10 μmol/Kg s.c. soon after birth, day 10): 0.85 nanamoles heme oxygenase per m
- heme oxygenase activity ([4]; liver, 10 μmol/Kg s.c. soon after birth, day 14): 0.78 nanamoles heme oxygenase per m
- heme oxygenase activity ([4]; liver, 10 μmol/Kg s.c. soon after birth, day 21): 0.56 nanamoles heme oxygenase per m
- heme oxygenase activity ([4]; liver, 10 μmol/Kg s.c. soon after birth, day 35): 1.23 nanamoles heme oxygenase per m
- heme oxygenase activity ([4]; spleen, 2 μmol/Kg s.c. soon after birth, day 2): 7.33 nanamoles heme oxygenase per m
- heme oxygenase activity ([4]; spleen, 2 μmol/Kg s.c. soon after birth, day 3): 11.13 nanamoles heme oxygenase per m
- heme oxygenase activity ([4]; spleen, 2 μmol/Kg s.c. soon after birth, day 5): 15.13 nanamoles heme oxygenase per m
- heme oxygenase activity ([4]; spleen, 2 μmol/Kg s.c. soon after birth, day 7): 11.18 nanamoles heme oxygenase per m
- heme oxygenase activity ([4]; spleen, 2 μmol/Kg s.c. soon after birth, day 10): 13.87 nanamoles heme oxygenase per m
- heme oxygenase activity ([4]; spleen, 2 μmol/Kg s.c. soon after birth, day 14): 16.62 nanamoles heme oxygenase per m
- heme oxygenase activity ([4]; spleen, 2 μmol/Kg s.c. soon after birth, day 21): 10.28 nanamoles heme oxygenase per m
- heme oxygenase activity ([4]; spleen, 2 μmol/Kg s.c. soon after birth, day 35): 15.55 nanamoles heme oxygenase per m
- heme oxygenase activity ([4]; spleen, 10 μmol/Kg s.c. soon after birth, day 2): 3.97 nanamoles heme oxygenase per m
- heme oxygenase activity ([4]; spleen, 10 μmol/Kg s.c. soon after birth, day 3): 4.62 nanamoles heme oxygenase per m
- heme oxygenase activity ([4]; spleen, 10 μmol/Kg s.c. soon after birth, day 5): 2.76 nanamoles heme oxygenase per m
- heme oxygenase activity ([4]; spleen, 10 μmol/Kg s.c. soon after birth, day 7): 6.19 nanamoles heme oxygenase per m
- heme oxygenase activity ([4]; spleen, 10 μmol/Kg s.c. soon after birth, day 10): 9.53 nanamoles heme oxygenase per m
- heme oxygenase activity ([4]; spleen, 10 μmol/Kg s.c. soon after birth, day 14): 10.34 nanamoles heme oxygenase per m
- heme oxygenase activity ([4]; spleen, 10 μmol/Kg s.c. soon after birth, day 21): 8.06 nanamoles heme oxygenase per m
- heme oxygenase activity ([4]; spleen, 10 μmol/Kg s.c. soon after birth, day 35): 13.72 nanamoles heme oxygenase per m
- Serum Bilirubin ([5]; 2 μmol/Kg s.c. soon after birth, day 2): 0.39 milligrams per deciliter
- Serum Bilirubin ([5]; 2 μmol/Kg s.c. soon after birth, day 3): 0.33 milligrams per deciliter
- Serum Bilirubin ([5]; 2 μmol/Kg s.c. soon after birth, day 5): 0.28 milligrams per deciliter
- Serum Bilirubin ([5]; 2 μmol/Kg s.c. soon after birth, day 7): 0.32 milligrams per deciliter
- Serum Bilirubin ([5]; 2 μmol/Kg s.c. soon after birth, day 10): 0.33 milligrams per deciliter
- Serum Bilirubin ([5]; 2 μmol/Kg s.c. soon after birth, day 14): 0.40 milligrams per deciliter
- Serum Bilirubin ([5]; 10 μmol/Kg s.c. soon after birth, day 2): 0.43 milligrams per deciliter
- Serum Bilirubin ([5]; 10 μmol/Kg s.c. soon after birth, day 3): 0.33 milligrams per deciliter
- Serum Bilirubin ([5]; 10 μmol/Kg s.c. soon after birth, day 5): 0.24 milligrams per deciliter
- Serum Bilirubin ([5]; 10 μmol/Kg s.c. soon after birth, day 7): 0.30 milligrams per deciliter
- Serum Bilirubin ([5]; 10 μmol/Kg s.c. soon after birth, day 10): 0.33 milligrams per deciliter
- Serum Bilirubin ([5]; 10 μmol/Kg s.c. soon after birth, day 14): 0.28 milligrams per deciliter
